Measured values as given in US20170190671A1, “BIS(ARYL)CATECHOL DERIVATIVES AS HERBICIDES” (E I DU PONT DE NEMOURS AND COMPANY, priority 2014, published 2017).

Columns and labels:
Settings in all cases: scale 0 to 100
[1] = system: canarygrass (Phalaris minor); assay: Test D preemergence; assay type: in vivo
Excerpt: (§1) Seeds of plant species selected from bluegrass (annual bluegrass, Poa annua), blackgrass (Alopecurus myosuroides), canarygrass (Phalaris minor), chickweed (common chickweed, Stellaria media), cutleaf geranium (Geranium dissectum), galium (catchweed bedstraw, Galium aparine), downy bromegrass (Bromus tectorum), field poppy (Papaver rhoeas), field violet (Viola arvensis), green foxtail (Setaria viridis), deadnettle (henbit deadnettle, Lamium amplexicaule), Italian ryegrass (Lolium multiflorum), kochia (Kochia scoparia), lambsquarters (Chenopodium album), oilseed rape (Brassica napus), pigweed (Amaranthus retroflexus), chamomile (scentless chamomile, Matricaria inodora), Russian thistle (Salsola kali), speedwell (bird's-eye speedwell, Veronica persica), spring barley (Hordeum vulgare), spring wheat (Triticum aestivum), wild buckwheat (Polygonum convolvulus), wild mustard (Sinapis arvensis), wild oat (Avenafatua), wild radish (Raphanus raphanistrum), windgrass (Apera spica-venti), winter barley (Hordeum vulgare), and winter wheat (Triticum aestivum) were planted into a silt loam soil and treated preemergence with test chemicals formulated in a non-phytotoxic solvent mixture which included a surfactant.
(§2) At the same time, these species were planted in pots containing Redi-Earth® planting medium (Scotts Company, 14111 Scottslawn Road, Marysville, Ohio 43041) comprising spaghnum peat moss, vermiculite, wetting agent and starter nutrients and treated with postemergence applications of the test chemicals formulated in the same manner. Plants ranged in height from 2 to 18 cm (1- to 4-leaf stage). Treated plants and controls were maintained in a controlled growth environment for 14 to 21 days after which time all species were compared to controls and visually evaluated. Plant response ratings, summarized in Table D, are based on a scale of 0 to 100 where 0 is no effect and 100 is complete control. A dash (-) response means no test result.

[2] = system: wild oat (Avenafatua); assay: Test D postemergence; assay type: in vivo, Avena fatua
Excerpt: as §1, §2

[3] = system: palmer pigweed (Amaranthus palmeri); assay: Test E postemergence; assay type: in vivo
Method in brief: (§3)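 Visual ratings from 0 = no effect to 100 = complete control, scored against untreated controls after 14 to 21 days in the greenhouse. Compounds, in a non-phytotoxic solvent mix with surfactant, went onto silt loam soil right after sowing (preemergence) or onto 2–18 cm plants at the 1- to 4-leaf stage (postemergence).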

[4] = system: sandbur (southern sandbur, Cenchrus echinatus); assay: Test E postemergence; assay type: in vivo
Method in brief: as §3

[5] = system: fall panicum (Panicum dichotomiflorum); assay: Test E postemergence; assay type: in vivo
Method in brief: as §3

[6] = system: barnyardgrass (Echinochloa crus-galli); assay: Test E postemergence; assay type: in vivo
Method in brief: as §3

[7] = system: waterhemp (common waterhemp, Amaranthus rudis); assay: Test E postemergence; assay type: in vivo
Method in brief: as §3

[8] = system: horseweed (Conyza canadensis); assay: Test E postemergence; assay type: in vivo
Method in brief: as §3

[9] = system: corn (Zea mays); assay: Test E postemergence; assay type: in vivo
Method in brief: as §3

[10] = system: waterhemp_RES2 (ALS & HPPD resistant common waterhemp, Amaranthus rudis); assay: Test E postemergence; assay type: in vivo
Method in brief: as §3

[11] = system: soybean (Glycine max); assay: Test E postemergence; assay type: in vivo
Method in brief: as §3

[12] = system: ragweed (common ragweed, Ambrosia elatior); assay: Test E postemergence; assay type: in vivo
Method in brief: as §3

[13] = system: arrowleaf sida (Sida rhombifolia); assay: Test E postemergence; assay type: in vivo
Method in brief: as §3

[14] = system: kochia (Kochia scoparia); assay: Test E postemergence; assay type: in vivo
Method in brief: as §3

[15] = system: Italian ryegrass (Lolium multiflorum); assay: Test E postemergence; assay type: in vivo
Method in brief: as §3

For Fc1cccc(Oc2ncc(C(F)(F)F)cn2)c1Oc1ncc(Cl)cn1 [Compound 42, 5-chloro-2-[2-fluoro-6-[[5-(trifluoromethyl)-2-pyrimidinyl]oxy]phenoxy]pyrimidine], which “Plant response rating, Canarygrass” value ([1]; 16 g ai/ha) is on record?
The value was 15.

What about the “Plant response rating, Canarygrass” value ([1]; 31 g ai/ha) of the same molecule?
The value was 35.

And the “Plant response rating, Canarygrass” value ([1]; 62 g ai/ha)?
The value was 35.

And the “Plant response rating, Canarygrass” value ([1]; 125 g ai/ha)?
The value was 100.

What about the “Plant response rating, Oat, Wild” value ([2]; 16 g ai/ha) of the same molecule?
The value was 25.

What about the “Plant response rating, Oat, Wild” value ([2]; 31 g ai/ha) of the same molecule?
Its value is 45.

And the “Plant response rating, Oat, Wild” value ([2]; 62 g ai/ha)?
Its value is 40.

What about the “Plant response rating, Oat, Wild” value ([2]; 125 g ai/ha) of the same molecule?
Its value is 70.

What about the “Plant response rating, Pigweed, Palmer” value ([3]; 16 g ai/ha) of the same molecule?
Its value is 80.

And the “Plant response rating, Pigweed, Palmer” value ([3]; 31 g ai/ha)?
Its value is 85.

What about the “Plant response rating, Pigweed, Palmer” value ([3]; 62 g ai/ha) of the same molecule?
The value was 95.

What about the “Plant response rating, Pigweed, Palmer” value ([3]; 125 g ai/ha) of the same molecule?
The value was 100.

What about the “Plant response rating, Sandbur” value ([4]; 16 g ai/ha) of the same molecule?
The value was 0.

What about the “Plant response rating, Sandbur” value ([4]; 31 g ai/ha) of the same molecule?
Its value is 0.

What about the “Plant response rating, Sandbur” value ([4]; 62 g ai/ha) of the same molecule?
The value was 0.

What about the “Plant response rating, Sandbur” value ([4]; 125 g ai/ha) of the same molecule?
Its value is 10.

And the “Plant response rating, Panicum, Fall” value ([5]; 16 g ai/ha)?
The value was 10.

What about the “Plant response rating, Panicum, Fall” value ([5]; 31 g ai/ha) of the same molecule?
The value was 15.

What about the “Plant response rating, Panicum, Fall” value ([5]; 62 g ai/ha) of the same molecule?
Its value is 20.

What about the “Plant response rating, Panicum, Fall” value ([5]; 125 g ai/ha) of the same molecule?
The value was 30.

What about the “Plant response rating, Barnyardgrass” value ([6]; 16 g ai/ha) of the same molecule?
Its value is 0.

And the “Plant response rating, Barnyardgrass” value ([6]; 31 g ai/ha)?
Its value is 0.

And the “Plant response rating, Barnyardgrass” value ([6]; 62 g ai/ha)?
Its value is 10.

What about the “Plant response rating, Barnyardgrass” value ([6]; 125 g ai/ha) of the same molecule?
Its value is 20.

What about the “Plant response rating, Waterhemp” value ([7]; 16 g ai/ha) of the same molecule?
Its value is 75.

And the “Plant response rating, Waterhemp” value ([7]; 31 g ai/ha)?
Its value is 85.

What about the “Plant response rating, Waterhemp” value ([7]; 62 g ai/ha) of the same molecule?
Its value is 90.

What about the “Plant response rating, Waterhemp” value ([7]; 125 g ai/ha) of the same molecule?
Its value is 95.

What about the “Plant response rating, Horseweed” value ([8]; 16 g ai/ha) of the same molecule?
Its value is 0.

What about the “Plant response rating, Horseweed” value ([8]; 31 g ai/ha) of the same molecule?
The value was 0.

And the “Plant response rating, Horseweed” value ([8]; 62 g ai/ha)?
The value was 10.

And the “Plant response rating, Horseweed” value ([8]; 125 g ai/ha)?
Its value is 10.

And the “Plant response rating, Corn” value ([9]; 16 g ai/ha)?
Its value is 5.

What about the “Plant response rating, Corn” value ([9]; 31 g ai/ha) of the same molecule?
The value was 10.

And the “Plant response rating, Corn” value ([9]; 62 g ai/ha)?
Its value is 10.

What about the “Plant response rating, Corn” value ([9]; 125 g ai/ha) of the same molecule?
Its value is 15.

What about the “Plant response rating, Waterhemp_RES2” value ([10]; 16 g ai/ha) of the same molecule?
Its value is 50.

And the “Plant response rating, Waterhemp_RES2” value ([10]; 31 g ai/ha)?
Its value is 65.

And the “Plant response rating, Waterhemp_RES2” value ([10]; 62 g ai/ha)?
Its value is 85.

And the “Plant response rating, Waterhemp_RES2” value ([10]; 125 g ai/ha)?
Its value is 95.

What about the “Plant response rating, Soybean” value ([11]; 16 g ai/ha) of the same molecule?
The value was 50.

And the “Plant response rating, Soybean” value ([11]; 31 g ai/ha)?
Its value is 60.

And the “Plant response rating, Soybean” value ([11]; 62 g ai/ha)?
The value was 95.

What about the “Plant response rating, Soybean” value ([11]; 125 g ai/ha) of the same molecule?
Its value is 95.

What about the “Plant response rating, Ragweed” value ([12]; 16 g ai/ha) of the same molecule?
The value was 10.

What about the “Plant response rating, Ragweed” value ([12]; 31 g ai/ha) of the same molecule?
The value was 25.

And the “Plant response rating, Ragweed” value ([12]; 62 g ai/ha)?
Its value is 50.

And the “Plant response rating, Ragweed” value ([12]; 125 g ai/ha)?
The value was 60.

What about the “Plant response rating, Arrowleaf Sida” value ([13]; 16 g ai/ha) of the same molecule?
The value was 75.

What about the “Plant response rating, Arrowleaf Sida” value ([13]; 31 g ai/ha) of the same molecule?
Its value is 85.

What about the “Plant response rating, Arrowleaf Sida” value ([13]; 62 g ai/ha) of the same molecule?
Its value is 95.

And the “Plant response rating, Arrowleaf Sida” value ([13]; 125 g ai/ha)?
Its value is 98.

And the “Plant response rating, Kochia” value ([14]; 16 g ai/ha)?
The value was 70.

And the “Plant response rating, Kochia” value ([14]; 31 g ai/ha)?
The value was 80.

And the “Plant response rating, Kochia” value ([14]; 62 g ai/ha)?
The value was 95.

And the “Plant response rating, Kochia” value ([14]; 125 g ai/ha)?
The value was 95.

What about the “Plant response rating, Ryegrass, Italian” value ([15]; 16 g ai/ha) of the same molecule?
The value was 0.

And the “Plant response rating, Ryegrass, Italian” value ([15]; 31 g ai/ha)?
The value was 10.

And the “Plant response rating, Ryegrass, Italian” value ([15]; 62 g ai/ha)?
The value was 20.

What about the “Plant response rating, Ryegrass, Italian” value ([15]; 125 g ai/ha) of the same molecule?
The value was 40.

Which “Plant response rating, Pigweed, Palmer” value ([3]; 31 g ai/ha) does the source give for Fc1cccc(Oc2ncc(Cl)cn2)c1Oc1ncc(C(F)(F)F)cn1 [Compound 43, 5-chloro-2-[5-fluoro-6-[[5-(trifluoromethyl)-2-pyrimidinyl]oxy]phenoxy]pyrimidine] here?
Its value is 80.

What about the “Plant response rating, Pigweed, Palmer” value ([3]; 125 g ai/ha) of the same molecule?
The value was 90.

What about the “Plant response rating, Sandbur” value ([4]; 31 g ai/ha) of the same molecule?
Its value is 0.

What about the “Plant response rating, Sandbur” value ([4]; 125 g ai/ha) of the same molecule?
The value was 10.

What about the “Plant response rating, Panicum, Fall” value ([5]; 31 g ai/ha) of the same molecule?
The value was 40.

And the “Plant response rating, Panicum, Fall” value ([5]; 125 g ai/ha)?
Its value is 50.

And the “Plant response rating, Barnyardgrass” value ([6]; 31 g ai/ha)?
The value was 0.

And the “Plant response rating, Barnyardgrass” value ([6]; 125 g ai/ha)?
The value was 15.

What about the “Plant response rating, Waterhemp” value ([7]; 31 g ai/ha) of the same molecule?
The value was 65.

And the “Plant response rating, Waterhemp” value ([7]; 125 g ai/ha)?
The value was 95.

What about the “Plant response rating, Horseweed” value ([8]; 31 g ai/ha) of the same molecule?
The value was 0.

And the “Plant response rating, Horseweed” value ([8]; 125 g ai/ha)?
Its value is 10.

And the “Plant response rating, Corn” value ([9]; 31 g ai/ha)?
The value was 5.

What about the “Plant response rating, Corn” value ([9]; 125 g ai/ha) of the same molecule?
Its value is 15.

What about the “Plant response rating, Waterhemp_RES2” value ([10]; 31 g ai/ha) of the same molecule?
Its value is 65.

What about the “Plant response rating, Waterhemp_RES2” value ([10]; 125 g ai/ha) of the same molecule?
The value was 80.

What about the “Plant response rating, Soybean” value ([11]; 31 g ai/ha) of the same molecule?
The value was 70.

And the “Plant response rating, Soybean” value ([11]; 125 g ai/ha)?
The value was 95.

What about the “Plant response rating, Ragweed” value ([12]; 31 g ai/ha) of the same molecule?
Its value is 50.

What about the “Plant response rating, Ragweed” value ([12]; 125 g ai/ha) of the same molecule?
Its value is 60.

And the “Plant response rating, Arrowleaf Sida” value ([13]; 31 g ai/ha)?
The value was 80.

What about the “Plant response rating, Arrowleaf Sida” value ([13]; 125 g ai/ha) of the same molecule?
Its value is 95.

What about the “Plant response rating, Kochia” value ([14]; 31 g ai/ha) of the same molecule?
Its value is 75.

What about the “Plant response rating, Kochia” value ([14]; 125 g ai/ha) of the same molecule?
Its value is 95.

What about the “Plant response rating, Ryegrass, Italian” value ([15]; 31 g ai/ha) of the same molecule?
The value was 0.

And the “Plant response rating, Ryegrass, Italian” value ([15]; 125 g ai/ha)?
The value was 20.
